In PubChem BioAssay AID2060492 (Molecular Pharmacology Branch, DTP, NCI, 2025):

System: 695427-040-R-J1-PDC complex spheroids, viability percent T/C
Assay: Anticancer human tumor 695427-040-R-J1-PDC patient-derived colon adenocarcinoma cell line growth inhibition [GQUAD]
Conditions: for IC50: curve of first compound; for viability, T/C: stronger effect = lower value
Summary of the method: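 Multi-cell-type spheroids of tumor cells with HUVEC and mesenchymal stem cells, treated with drug combinations. Concentrations descend in half-log steps from near clinical Cmax, or from 10 microM where Cmax is unknown; viability read-out.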

[1] = second compound 0.0316 µM, first compound 0.0316 µM
[2] = second compound 0.0316 µM, first compound 0.1 µM
[3] = second compound 0.0316 µM, first compound 0.316 µM
[4] = second compound 0.0316 µM, first compound 1 µM
[5] = second compound 0.0316 µM, first compound 3.16 µM
[6] = second compound 0.0316 µM, first compound 10 µM
[7] = second compound 0.1 µM, first compound 0.0316 µM
[8] = second compound 0.1 µM, first compound 0.1 µM
[9] = second compound 0.1 µM, first compound 0.316 µM
[10] = second compound 0.1 µM, first compound 1 µM
[11] = second compound 0.1 µM, first compound 3.16 µM
[12] = second compound 0.1 µM, first compound 10 µM
[13] = second compound 0.316 µM, first compound 0.0316 µM
[14] = second compound 0.316 µM, first compound 0.1 µM
[15] = second compound 0.316 µM, first compound 0.316 µM
[16] = second compound 0.316 µM, first compound 1 µM
[17] = second compound 0.316 µM, first compound 3.16 µM
[18] = second compound 0.316 µM, first compound 10 µM
[19] = second compound 1 µM, first compound 0.0316 µM
[20] = second compound 1 µM, first compound 0.1 µM
[21] = second compound 1 µM, first compound 0.316 µM
[22] = second compound 1 µM, first compound 1 µM
[23] = second compound 1 µM, first compound 3.16 µM
[24] = second compound 1 µM, first compound 10 µM
[25] = second compound 3.16 µM, first compound 0.0316 µM
[26] = second compound 3.16 µM, first compound 0.1 µM
[27] = second compound 3.16 µM, first compound 0.316 µM
[28] = second compound 3.16 µM, first compound 1 µM
[29] = second compound 3.16 µM, first compound 3.16 µM
[30] = second compound 3.16 µM, first compound 10 µM
[31] = second compound 10 µM, first compound 0.0316 µM
[32] = second compound 10 µM, first compound 0.1 µM
[33] = second compound 10 µM, first compound 0.316 µM
[34] = second compound 10 µM, first compound 1 µM
[35] = second compound 10 µM, first compound 3.16 µM
[36] = second compound 10 µM, first compound 10 µM
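Note: spheroids exposed to compounds for seven days before readout.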

In the case of `C=CCn1c(=O)c2cnc(Nc3ccc(N4CCN(C)CC4)cc3)nc2n1-c1cccc(C(C)(C)O)n1` + Cc1cnc(CNC(=O)c2c(=O)c3ccc(N4CCCN(C)CC4)nc3n3c2sc2ccccc23)cn1, the IC50 (second compound 0.0316 µM) is reported as 1.72 µM, the IC50 (second compound 0.1 µM) is reported as 2.45 µM and the IC50 (second compound 0.316 µM) is reported as 5.16 µM. The IC50 (second compound 1 µM) was 8.26 µM, the IC50 (second compound 3.16 µM) was less than 0.0316 µM and the IC50 (second compound 10 µM) was less than 0.0316 µM. It also gave a viability, T/C [1] of 88.3%, a viability, T/C [2] of 78.8% and a viability, T/C [3] of 73.2%. It also gave a viability, T/C [4] of 51.7%, a viability, T/C [5] of 47% and a viability, T/C [6] of 41.1%. For the same compound, the viability, T/C [7] was 79.5%, the viability, T/C [8] was 71% and the viability, T/C [9] was 65.2%. It also gave a viability, T/C [10] of 49.4%, a viability, T/C [11] of 53.8% and a viability, T/C [12] of 40.8%. It also gave a viability, T/C [13] of 74.8%, a viability, T/C [14] of 55% and a viability, T/C [15] of 67.6%. It also gave a viability, T/C [16] of 58.5%, a viability, T/C [17] of 59.3% and a viability, T/C [18] of 40.6%. For the same compound, the viability, T/C [19] was 51.6%, the viability, T/C [20] was 57.2% and the viability, T/C [21] was 62%. The viability, T/C [22] was 43%, the viability, T/C [23] was 55.2% and the viability, T/C [24] was 49.5%. For the same compound, the viability, T/C [25] was 32.3%, the viability, T/C [26] was 49.6% and the viability, T/C [27] was 48.6%. The viability, T/C [28] was 33.4%, the viability, T/C [29] was 28.8% and the viability, T/C [30] was 28.6%. It also gave a viability, T/C [31] of 9.19%, a viability, T/C [32] of 15.3% and a viability, T/C [33] of 32.1%. The viability, T/C [34] was 25%, the viability, T/C [35] was 14.7% and the viability, T/C [36] was 0.75%.

With `CC(C)(O)C1CCC(Nc2ccc3ncc(-c4cccc(C(F)(F)F)c4)n3n2)CC1` (stereo unspecified) + Cc1cnc(CNC(=O)c2c(=O)c3ccc(N4CCCN(C)CC4)nc3n3c2sc2ccccc23)cn1 the IC50 (second compound 0.0316 µM) was 1.11 µM, the IC50 (second compound 0.1 µM) was 0.848 µM and the IC50 (second compound 0.316 µM) was 1.07 µM. The IC50 (second compound 1 µM) was 0.324 µM, the IC50 (second compound 3.16 µM) was less than 0.0316 µM and the IC50 (second compound 10 µM) was less than 0.0316 µM. For the same compound, the viability, T/C [1] was 82.1%, the viability, T/C [2] was 77.6% and the viability, T/C [3] was 73.5%. The viability, T/C [4] was 54.2%, the viability, T/C [5] was 8.38% and the viability, T/C [6] was 11.3%. The viability, T/C [7] was 86.5%, the viability, T/C [8] was 61.3% and the viability, T/C [9] was 78.2%. It also gave a viability, T/C [10] of 45.8%, a viability, T/C [11] of 12.6% and a viability, T/C [12] of 11.2%. For the same compound, the viability, T/C [13] was 75.2%, the viability, T/C [14] was 52.5% and the viability, T/C [15] was 62.6%. The viability, T/C [16] was 52.5%, the viability, T/C [17] was 8.9% and the viability, T/C [18] was 11.4%. It also gave a viability, T/C [19] of 67.3%, a viability, T/C [20] of 59.8% and a viability, T/C [21] of 46.9%. For the same compound, the viability, T/C [22] was 34.7%, the viability, T/C [23] was 1.37% and the viability, T/C [24] was 4.04%. For the same compound, the viability, T/C [25] was 44.2%, the viability, T/C [26] was 40.6% and the viability, T/C [27] was 50.6%. For the same compound, the viability, T/C [28] was 17.7%, the viability, T/C [29] was 0.11% and the viability, T/C [30] was 0.15%. It also gave a viability, T/C [31] of 24.7%, a viability, T/C [32] of 21.9% and a viability, T/C [33] of 12.1%. The viability, T/C [34] was 0.26%, the viability, T/C [35] was 0.2% and the viability, T/C [36] was 0.19%.

`O=C(NO)c1cnc(N2CCN(S(=O)(=O)c3ccc4ccccc4c3)CC2)nc1` + Cc1cnc(CNC(=O)c2c(=O)c3ccc(N4CCCN(C)CC4)nc3n3c2sc2ccccc23)cn1 was tested, and the IC50 (second compound 0.0316 µM) was 0.418 µM, the IC50 (second compound 0.1 µM) was 0.445 µM and the IC50 (second compound 0.316 µM) was 0.281 µM. For the same compound, the IC50 (second compound 1 µM) was 0.172 µM, the IC50 (second compound 3.16 µM) was less than 0.0316 µM and the IC50 (second compound 10 µM) was less than 0.0316 µM. It also gave a viability, T/C [1] of 91.1%, a viability, T/C [2] of 78.5% and a viability, T/C [3] of 64.4%. The viability, T/C [4] was 6.15%, the viability, T/C [5] was 0.22% and the viability, T/C [6] was 0.22%. It also gave a viability, T/C [7] of 87.2%, a viability, T/C [8] of 65.5% and a viability, T/C [9] of 68.3%. It also gave a viability, T/C [10] of 7.35%, a viability, T/C [11] of 0.34% and a viability, T/C [12] of 0.28%. It also gave a viability, T/C [13] of 85.3%, a viability, T/C [14] of 70.1% and a viability, T/C [15] of 49.8%. The viability, T/C [16] was 6.3%, the viability, T/C [17] was 0.18% and the viability, T/C [18] was 0.19%. For the same compound, the viability, T/C [19] was 56.4%, the viability, T/C [20] was 58.3% and the viability, T/C [21] was 41.7%. The viability, T/C [22] was 0.29%, the viability, T/C [23] was 0.1% and the viability, T/C [24] was 0.17%. It also gave a viability, T/C [25] of 48.4%, a viability, T/C [26] of 45.6% and a viability, T/C [27] of 23.1%. For the same compound, the viability, T/C [28] was 0.14%, the viability, T/C [29] was 0.11% and the viability, T/C [30] was 0.12%. The viability, T/C [31] was 24.2%, the viability, T/C [32] was 13.8% and the viability, T/C [33] was 0.3%. It also gave a viability, T/C [34] of 0.15%, a viability, T/C [35] of 0.17% and a viability, T/C [36] of 0.18%.
